{
  "source": "patent US11760978B2",
  "about": "“Cell culture medium for culturing organoid, culture method, and organoid” (KEIO UNIVERSITY, priority 2016, dated 2023)",
  "system": "epithelial tumor cells derived from colon tumor",
  "experiment": "Subculturing (long-term culturing) of epithelial tumor cells derived from colon tumor, Example 4",
  "format": "cell-based, human",
  "details": "SB202190 10 μM in medium, oxygen 20%",
  "method": "“WIFNRA medium”, “W^AfmIFNRA medium” and “WENRAS” medium were prepared using the same method as in section (2) of Example 4. In addition, recombinant human R-spondin 1 (R&D Systems) was added to commercially available Advanced DMEM/F-12 medium (Thermo Fisher Scientific) to a final concentration of 1 μg/mL followed by the addition noggin (Peprotech) to a final concentration of 100 ng/mL and A83-01 (Tocris) to a final concentration of 500 nM. Moreover, a medium was prepared in which the Wnt3a-afamin complex prepared in (1) above was added to a final concentration 300 ng/mL, IGF1 (Biolegend) was added to a final concentration of 100 ng/mL, FGF2 (Peprotech) was added to a final concentration of 50 ng/mL, and […] (Sigma-Aldrich) was added to a final concentration of 10 μM (and the resulting medium may be referred to as “W^AfmIFNRAS medium”).\nEpithelial tumor cells were obtained using the same method as in section (2) of Example 1. Next, the epithelial tumor cells were seeded in a 48-well plate together with 25 μL of Matrigel® (BD Bioscience). The “WIFNRA medium”, “W^MmIFNRA medium”, “WENRAS medium” and “WAfmIFNRAS medium” prepared in (2) above were added in 250 μL aliquots to the wells seeded with epithelial tumor cells followed by culturing at 37° C. and oxygen concentration of 20%. The medium was replaced every two days from the start of culturing. […]",
  "data": [
    {"smiles": "Oc1ccc(-c2nc(-c3ccncc3)c(-c3ccc(F)cc3)[nH]2)cc1", "note": "[SB202190, 4-(4-fluorophenyl)-2-(4-hydroxyphenyl)-5-(4-pyridyl)-1H-imidazole]", "values": [
      {"measurement": "toxicity to epithelial tumor cells", "result": "exhibited toxicity"}
    ]}
  ]
}
